Numbered stars: 1 amine (or outer) side, 2 acyl side, 3 side chain; on linkers, the order of the positions; unused ones are H or OH. Square brackets hold non-standard residues; d marks the D form. Peptide text beside a SMILES is read from it. * marks the point of attachment. ξ: configuration not given here. X1 = O=C(O)c1cc(NC(=S)*)ccc1-c1c2ccc(=O)cc-2oc2cc(O)ccc12; N(2-(2-PhOPh)Et)Gly = O=C(O)CNCCc1ccccc1Oc1ccccc1; Gly(N-3,5-(OMe)2-Ph) = COc1cc(NCC(=O)O)cc(OC)c1; X2 = COc1ccc([C@H](C)N(CC(=O)[*:2])[*:1])cc1; Ala(cPent) = N[C@@H](CC1CCCC1)C(=O)O; N((CH2)3OiPr)Gly = CC(C)OCCCNCC(=O)O; Cbz = O=C(OCc1ccccc1)*; ξI = CCC(C)C(N)C(=O)O; βAla = NCCC(=O)O; ξA = CC(N)C(=O)O

This is an account of results in ChEMBL document CHEMBL5230108, “Computational methods-guided design of modulators targeting protein-protein interactions (PPIs)” (Eur J Med Chem, 2020).

The target in experiment [1] is Catenin beta-1/Transcription factor 7 (Homo sapiens, UniProt P35222+P36402). The experiment in a line: Inhibition of N-terminal beta-catenin/full length myc-tagged TCF (unknown origin) trasfected in HEK293 cells measured for 48 hrs by. In kind it is cell-based.
Experiment [2] can be described thus: Inhibition of full length GST-tagged Wnt (unknown origin) by luciferase assay. More on the design: species or system Homo sapiens.
Experiment [3] is described as follows: Binding affinity to APC/ASEF (unknown origin) protein protein interaction assessed as dissociation constant by ITC analysis. The arrangement: species or system Homo sapiens.
Experiment [4] concerns the target Tumour suppressor protein p53/Mdm4 (Homo sapiens, UniProt O15151+P04637). The experiment in a line: Inhibition of human DMX-p53 protein-protein interaction […]. In kind it is protein assay.
Experiment [5] deals with Catenin beta-1/Transcription factor 7 (Homo sapiens) (UniProt P36402+P35222). The experiment in a line: Binding affinity to beta-catenin/Tcf (unknown origin) assessed as gibbs free energy change. In kind it is protein assay.
A further experiment has as its target Heat shock protein HSP90 (Homo sapiens, UniProt P07900+P08238). Put plainly: Binding affinity to HSP90 (unknown origin) assessed as dissociation constant. In kind it is protein assay.
For experiment [6], the target named is Adenomatous polyposis coli protein (Homo sapiens, UniProt P25054). Put plainly: Binding affinity to APC (unknown origin) assessed as inhibition constant by ITC analysis.
The target of experiment [7] is Histone-lysine N-methyltransferase 2A (Homo sapiens, UniProt Q03164). The experiment in a line: Competitive binding affinity to full length wild type MLL (unknown origin).
Chain of Histone-lysine N-methyltransferase 2A (Q03164 1-2718 limits assumed): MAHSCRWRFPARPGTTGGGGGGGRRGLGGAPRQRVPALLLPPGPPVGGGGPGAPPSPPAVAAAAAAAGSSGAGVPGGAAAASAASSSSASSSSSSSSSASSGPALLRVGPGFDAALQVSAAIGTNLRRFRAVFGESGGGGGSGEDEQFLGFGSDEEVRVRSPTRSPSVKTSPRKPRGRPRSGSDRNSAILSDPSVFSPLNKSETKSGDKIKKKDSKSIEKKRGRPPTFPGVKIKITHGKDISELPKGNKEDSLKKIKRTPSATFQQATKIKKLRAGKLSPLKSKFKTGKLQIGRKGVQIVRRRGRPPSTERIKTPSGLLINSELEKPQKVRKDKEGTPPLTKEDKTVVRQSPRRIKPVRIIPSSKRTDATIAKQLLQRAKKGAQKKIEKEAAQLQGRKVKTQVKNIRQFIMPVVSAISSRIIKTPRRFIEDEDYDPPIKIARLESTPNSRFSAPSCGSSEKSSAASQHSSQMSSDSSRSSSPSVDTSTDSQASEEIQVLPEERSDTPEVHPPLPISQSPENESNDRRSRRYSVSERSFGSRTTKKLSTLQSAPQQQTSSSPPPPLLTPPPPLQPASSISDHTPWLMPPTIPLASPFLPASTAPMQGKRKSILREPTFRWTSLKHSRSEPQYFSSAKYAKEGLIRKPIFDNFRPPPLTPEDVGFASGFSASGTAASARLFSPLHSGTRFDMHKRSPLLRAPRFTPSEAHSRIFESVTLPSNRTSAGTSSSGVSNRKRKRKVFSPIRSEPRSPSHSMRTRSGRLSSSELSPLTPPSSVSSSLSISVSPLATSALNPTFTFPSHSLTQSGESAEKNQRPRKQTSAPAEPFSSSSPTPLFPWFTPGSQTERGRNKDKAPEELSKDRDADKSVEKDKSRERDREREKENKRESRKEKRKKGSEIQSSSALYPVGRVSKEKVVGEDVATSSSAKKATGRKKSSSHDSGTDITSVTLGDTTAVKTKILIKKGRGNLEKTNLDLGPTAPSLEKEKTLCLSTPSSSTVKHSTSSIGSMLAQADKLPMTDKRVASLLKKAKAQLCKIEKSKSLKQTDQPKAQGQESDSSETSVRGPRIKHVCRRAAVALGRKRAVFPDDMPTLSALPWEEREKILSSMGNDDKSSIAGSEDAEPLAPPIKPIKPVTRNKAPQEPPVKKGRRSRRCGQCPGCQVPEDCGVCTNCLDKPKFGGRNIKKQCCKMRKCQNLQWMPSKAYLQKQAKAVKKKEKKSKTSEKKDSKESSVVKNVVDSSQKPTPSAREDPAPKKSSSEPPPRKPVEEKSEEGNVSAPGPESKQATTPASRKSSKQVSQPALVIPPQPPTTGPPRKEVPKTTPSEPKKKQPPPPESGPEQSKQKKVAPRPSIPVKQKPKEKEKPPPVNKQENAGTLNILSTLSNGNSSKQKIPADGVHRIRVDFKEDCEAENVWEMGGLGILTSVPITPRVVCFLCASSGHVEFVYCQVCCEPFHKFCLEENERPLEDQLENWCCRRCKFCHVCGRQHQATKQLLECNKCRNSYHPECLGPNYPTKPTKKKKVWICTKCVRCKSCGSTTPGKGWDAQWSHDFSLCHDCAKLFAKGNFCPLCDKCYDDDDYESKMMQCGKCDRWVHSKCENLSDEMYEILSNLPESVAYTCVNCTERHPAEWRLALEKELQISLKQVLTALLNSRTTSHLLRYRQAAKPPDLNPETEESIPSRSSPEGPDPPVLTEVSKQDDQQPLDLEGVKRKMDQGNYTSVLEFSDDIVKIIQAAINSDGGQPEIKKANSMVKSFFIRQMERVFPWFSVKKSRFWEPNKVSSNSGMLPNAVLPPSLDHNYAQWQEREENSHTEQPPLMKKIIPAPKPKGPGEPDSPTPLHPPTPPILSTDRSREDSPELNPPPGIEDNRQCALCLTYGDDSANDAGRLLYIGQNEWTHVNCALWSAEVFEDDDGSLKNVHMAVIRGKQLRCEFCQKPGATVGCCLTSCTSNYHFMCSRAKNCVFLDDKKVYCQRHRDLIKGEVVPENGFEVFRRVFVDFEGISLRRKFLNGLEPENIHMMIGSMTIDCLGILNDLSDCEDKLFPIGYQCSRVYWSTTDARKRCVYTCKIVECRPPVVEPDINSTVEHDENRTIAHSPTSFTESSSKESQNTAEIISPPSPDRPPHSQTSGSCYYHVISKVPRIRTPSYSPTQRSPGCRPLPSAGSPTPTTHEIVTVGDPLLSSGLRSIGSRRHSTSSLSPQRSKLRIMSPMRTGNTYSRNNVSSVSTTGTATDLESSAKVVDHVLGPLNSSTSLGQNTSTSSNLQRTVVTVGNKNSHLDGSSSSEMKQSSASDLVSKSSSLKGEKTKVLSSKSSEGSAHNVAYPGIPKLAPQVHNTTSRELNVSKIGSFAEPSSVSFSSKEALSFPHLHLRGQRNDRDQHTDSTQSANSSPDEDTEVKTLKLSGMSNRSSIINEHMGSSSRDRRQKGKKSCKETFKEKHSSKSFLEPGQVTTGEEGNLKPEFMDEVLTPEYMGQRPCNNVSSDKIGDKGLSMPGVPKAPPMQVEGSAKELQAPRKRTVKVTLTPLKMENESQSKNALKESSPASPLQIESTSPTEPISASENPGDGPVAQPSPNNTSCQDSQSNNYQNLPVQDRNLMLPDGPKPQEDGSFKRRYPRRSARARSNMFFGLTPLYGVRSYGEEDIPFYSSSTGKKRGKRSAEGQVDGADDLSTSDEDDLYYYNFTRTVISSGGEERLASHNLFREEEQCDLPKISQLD
Chain of Histone-lysine N-methyltransferase 2A (Q03164 2719-3969 limits assumed): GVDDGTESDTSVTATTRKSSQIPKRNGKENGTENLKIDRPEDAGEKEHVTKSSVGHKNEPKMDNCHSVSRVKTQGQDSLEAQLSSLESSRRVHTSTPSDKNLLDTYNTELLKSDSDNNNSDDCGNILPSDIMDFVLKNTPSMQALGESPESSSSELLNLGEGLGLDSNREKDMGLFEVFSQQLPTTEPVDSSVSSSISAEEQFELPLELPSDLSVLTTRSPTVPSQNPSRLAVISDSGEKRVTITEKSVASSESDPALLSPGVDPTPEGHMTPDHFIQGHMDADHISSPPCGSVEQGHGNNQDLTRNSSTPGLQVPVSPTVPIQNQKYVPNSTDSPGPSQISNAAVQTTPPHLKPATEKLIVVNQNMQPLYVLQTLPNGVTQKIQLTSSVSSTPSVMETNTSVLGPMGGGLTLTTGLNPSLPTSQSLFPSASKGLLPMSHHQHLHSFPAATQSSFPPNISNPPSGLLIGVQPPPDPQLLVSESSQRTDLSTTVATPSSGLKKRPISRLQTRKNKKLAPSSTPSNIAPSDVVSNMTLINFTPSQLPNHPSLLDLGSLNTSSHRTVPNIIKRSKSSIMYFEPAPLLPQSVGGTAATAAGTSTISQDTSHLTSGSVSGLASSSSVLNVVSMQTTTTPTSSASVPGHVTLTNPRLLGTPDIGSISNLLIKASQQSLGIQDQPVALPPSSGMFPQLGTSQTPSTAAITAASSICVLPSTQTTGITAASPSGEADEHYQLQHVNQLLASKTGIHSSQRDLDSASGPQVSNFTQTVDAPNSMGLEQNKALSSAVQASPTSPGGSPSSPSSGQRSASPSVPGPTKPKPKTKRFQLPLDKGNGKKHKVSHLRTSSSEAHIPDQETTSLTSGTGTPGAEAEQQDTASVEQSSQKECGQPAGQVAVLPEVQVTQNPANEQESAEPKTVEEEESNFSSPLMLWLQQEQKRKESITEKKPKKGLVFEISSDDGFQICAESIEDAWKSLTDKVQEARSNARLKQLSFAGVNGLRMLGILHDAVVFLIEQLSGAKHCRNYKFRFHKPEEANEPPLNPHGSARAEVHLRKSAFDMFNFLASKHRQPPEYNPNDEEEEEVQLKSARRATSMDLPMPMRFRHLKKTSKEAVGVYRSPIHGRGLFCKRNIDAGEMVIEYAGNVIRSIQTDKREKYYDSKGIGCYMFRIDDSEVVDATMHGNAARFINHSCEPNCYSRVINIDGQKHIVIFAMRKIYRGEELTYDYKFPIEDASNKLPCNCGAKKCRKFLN

Chain of Tumour suppressor protein p53/Mdm4 (P04637 whole entry): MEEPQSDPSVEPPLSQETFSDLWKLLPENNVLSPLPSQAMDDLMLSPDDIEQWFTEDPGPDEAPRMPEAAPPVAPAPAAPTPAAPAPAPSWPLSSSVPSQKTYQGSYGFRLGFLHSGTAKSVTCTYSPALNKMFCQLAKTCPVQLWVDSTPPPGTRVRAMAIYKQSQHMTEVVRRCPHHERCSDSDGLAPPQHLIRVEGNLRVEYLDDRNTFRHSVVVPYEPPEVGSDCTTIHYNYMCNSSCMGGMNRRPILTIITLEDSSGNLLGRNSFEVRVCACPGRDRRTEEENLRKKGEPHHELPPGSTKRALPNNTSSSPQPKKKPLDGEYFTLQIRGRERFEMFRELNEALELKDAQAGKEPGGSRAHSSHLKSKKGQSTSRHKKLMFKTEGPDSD
Chain of Tumour suppressor protein p53/Mdm4 (O15151 whole entry): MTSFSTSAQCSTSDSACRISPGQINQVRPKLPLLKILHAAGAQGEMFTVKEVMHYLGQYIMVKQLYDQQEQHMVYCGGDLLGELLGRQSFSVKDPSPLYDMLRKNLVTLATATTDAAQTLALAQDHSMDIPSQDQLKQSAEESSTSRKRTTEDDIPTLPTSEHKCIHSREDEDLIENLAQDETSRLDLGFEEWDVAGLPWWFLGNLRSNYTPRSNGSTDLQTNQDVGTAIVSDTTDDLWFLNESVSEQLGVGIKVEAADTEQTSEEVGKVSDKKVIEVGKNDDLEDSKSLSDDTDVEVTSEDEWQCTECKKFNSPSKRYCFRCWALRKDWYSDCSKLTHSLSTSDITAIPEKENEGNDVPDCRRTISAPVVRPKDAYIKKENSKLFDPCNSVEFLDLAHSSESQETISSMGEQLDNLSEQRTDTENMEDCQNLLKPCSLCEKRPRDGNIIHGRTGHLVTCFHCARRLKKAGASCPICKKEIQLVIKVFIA

As to `COc1ccc([C@H](C)N2CC(=O)N[C@H](C)C(=O)N(CCc3ccccc3Oc3ccccc3)CC(=O)N(c3cc(OC)cc(OC)c3)CC(=O)N(CCCOC(C)C)CC(=O)N([C@@H](C)c3ccc(OC)cc3)CC2=O)cc1` (cyclo([dA][N(2-(2-PhOPh)Et)Gly][Gly(N-3,5-(OMe)2-Ph)][N((CH2)3OiPr)Gly][X2][X2])), the IC50 turned out to be 5.44 µM in experiment [1] and 105 nM in experiment [2].

`CCC(C)C(NC(=O)C(C)NC(=O)[C@H](CC(C)C)NC(=O)[C@H](CCC(N)=O)NC(=O)[C@H](CCC(=O)O)NC(=O)CNC(=O)CNC(C)=O)C(N)=O` (stereo partly drawn) (Ac-GGEQL[ξA][ξI]-NH2): the Kd in experiment [3] was 18 nM.

`C[C@](O)(c1ccccc1)c1cn(C[C@H](NC(=O)OCC2c3ccccc3-c3ccccc32)C(=O)O)nn1` yielded an IC50 in experiment [4] of 5.77 nM.

Consider `Cc1cn([C@H]2C[C@H](n3cc([C@]4(O)CC[C@H]5[C@@H]6CCc7cc(O)ccc7[C@H]6CC[C@@]54C)nn3)[C@@H](CO)O2)c(=O)[nH]c1=O`, for which the IC50 in experiment [4] worked out at 12.4 nM.

On to `COCCN1CC(=O)N(CCc2ccc(OC)cc2)CC(=O)N(c2cc(OC)cc(OC)c2)CC(=O)N(C(C)c2ccc(OC)cc2)CC(=O)N(C(C)c2ccc(OC)cc2)CC(=O)N[C@H](C)C1=O` (stereo partly drawn), for which, in experiment [5], the deltaG was -15.9 kcal/mol.

With `C[C@](O)(c1cccc(F)c1)c1cn(CSc2ccccc2)nn1`, half-maximal inhibition in experiment [4] (IC50) was put at 8 nM.

Regarding `O=C(N[C@@H](Cn1cc(-c2ccc(F)cc2F)nn1)C(=O)O)OCC1c2ccccc2-c2ccccc21`, the IC50 in experiment [4] amounted to 1.74 nM.

Regarding `OC[C@H]1OC(n2cc(-c3ccc(F)cc3F)nn2)[C@H](O)[C@@H](O)[C@@H]1O` (stereo partly drawn), the IC50 in experiment [4] worked out at 0.1 nM.

For the compound `C[C@](O)(c1cccc(F)c1)c1cn(C2O[C@H](CO)[C@@H](O)[C@H](O)[C@H]2O)nn1` (stereo partly drawn), 0.24 nM corresponded to half-maximal inhibition in experiment [4] (IC50).

For the compound `CC(=O)N[C@@H]1C(n2cc([C@@](C)(O)c3cccc(F)c3)nn2)O[C@H](COCc2ccccc2)[C@H](OCc2ccccc2)[C@@H]1OCc1ccccc1` (stereo partly drawn), the IC50 in experiment [4] stood at 22.4 nM. Besides, the Kd on Heat shock protein HSP90 stood at 21.1 µM.

In turn, `O=C(N[C@@H](Cn1cc(-c2ccccc2)nn1)C(=O)O)OCC1c2ccccc2-c2ccccc21` gave an IC50 in experiment [4] of 2.46 nM.

As to `C[C@H](NC(=O)OCc1ccccc1)C(=O)NCC(=O)N[C@@H](CCC(=O)O)C(=O)N[C@@H](C)C(=O)N[C@@H](CC1CCCC1)C(=O)N[C@@H](Cc1ccc(O)cc1)C(=O)N[C@@H](CCC(=O)O)C(N)=O` (Cbz-AGEA[Ala(cPent)]YE-NH2), in experiment [6], the Ki came to 15 nM.

`Fc1ccc(-c2cn(CSc3ccccc3)nn2)c(F)c1` returned an IC50 in experiment [4] above 100 nM.

In experiment [4], `CC(=O)N[C@@H]1C(n2cc(-c3ccc(F)cc3F)nn2)O[C@H](COCc2ccccc2)[C@H](OCc2ccccc2)[C@@H]1OCc1ccccc1` (stereo partly drawn) came in with an IC50 above 100 nM.

In experiment [7], `CC[C@H](C)[C@H](NC(=O)[C@H](CC(=O)O)NC(=O)[C@H](CO)NC(=O)CCNC(=S)Nc1ccc(-c2c3ccc(=O)cc-3oc3cc(O)ccc23)c(C(=O)O)c1)C(=O)N[C@@H](CCSC)C(=O)N[C@@H](CC(=O)O)C(=O)N[C@@H](Cc1ccccc1)C(=O)N[C@H](C(=O)N[C@@H](CC(C)C)C(=O)N[C@@H](CCCCN)C(=O)N[C@@H](CC(N)=O)C(=O)N[C@H](C(=O)N1CCC[C@H]1C(N)=O)[C@@H](C)O)C(C)C` ({X1-βAla}-SDIMDFVLKNTP-NH2) came in with a Kd above 100 µM and a Ki above 1 mM.
